Assay results published in US8859567B2, “Hydrate of 1-{(2S)-2-amino-4-[2,4-bis(trifluoromethyl)-5,8-di-hydropyrido[3,4-D]pyrimidin-7(6H)-yl]-4-oxobutyl}-5,5-difluoro-piperidin-2-one tartrate” (LG Life Sciences Ltd., priority 2010, dated 2014).
Counter-ions that a name gives are not always drawn.

Assays:
Format in all cases: physicochemical
[1] = Dynamic vapor adsorption/desorption analysis; conditions: for change of crystal form with the change of humidity / weight change according to the change of external humidity: 5˜95% RH; for weight change according to the change of external humidity: 25° C.
Method: The dynamic vapor adsorption/desorption data were collected on VTI-SA Vapor Sorption Analyzer. While maintaining 25° C., the vapor adsorption and desorption were repeated three times at intervals of 5% RH in the range of relative humidity (RH) 5˜95%. The samples were not dried prior to the analysis. The equilibrium standard used for analysis was that the weight change within 2 minutes is less than 0.01%.

[2] = Thermal stability of the crystal form I and II, HPLC analysis
Method: (§1) After 2 weeks, 4 weeks and 8 weeks, each sample was removed from Duma bottle and analyzed by XRD for identifying any change of the crystal form and HPLC for identifying the stability. For HPLC analysis the sample was dissolved in a mixture of acetonitrile/water/trifluoroacetic acid=30/70/0.1 (v/v/v) and then subjected to the analysis. The conditions for HPLC analysis are as follows:
Column: Atlantis dC18 (4.6 mm I.D×250 mm L, Particle Size 5, μm, Waters)
Column Temperature: 10° C.
Mobile phase A: MeCN/TFA=100/0.1 (v/v)
Mobile phase B: H2O/TFA=100/0.1 (v/v)
Total analysis time: 55 min.

[3] = Thermal stability of the crystal form I and II, XRD analysis for change of crystal form
Method: About 20 mg of the sample was charged in the sample holder and mounted on Powder X-ray diffractometer to obtain the diffraction pattern in the range of 3˜40°/2θ. The diffraction patterns as obtained are attached to the present specification as FIGS. 1, 5 and 10, respectively. Specific conditions for analysis are as follows.
as §1, with “analysis.” for “analysis. The conditions for HPLC analysis are as follows:”

[4] = Determination of density (bulk-density, tap-density, Carr index); conditions: for Bulk-density: 50 ml measuring cylinder; for Tap-density: ERWEKA densitometer, impulses 250 times
Method: Here, the samples were slowly introduced so that they are not closely contacted with each other. After reading a scale on the measuring cylinder, the weight thereof was measured to calculate the bulk-density. After measuring the bulk-density, the measuring cylinder containing the sample was put on ERWEKA densitometer and then subjected to impulses 250 times to measure the tapdensity (Table 5). […] The Can index was calculated from the bulk-density and the tap-density. […] Since it is generally understood that the lower the Carr index, the better the flowability, it could be identified by comparing the Carr indexes that the crystal form I can be easily handled in processing procedures including tabletting as compared to the crystal form II.

[5] = Powder X-ray diffraction test and weight change of the crystal form III during moisture adsorption at room temperature under atmosphere
Method: The crystal form III was placed on a XRD holder and subjected to XRD test over the time (after 30 minutes, 1 hour and 5 hours) while allowing the moisture adsorption at room temperature under atmosphere (see FIG. 15). In addition, the weight change at room temperature under atmosphere was recorded by times to obtain a graph (see FIG. 14).

| SMILES | change of crystal form with the change of humidity [1] | weight change according to the change of external humidity [1] [%] | weight increase at 75% RH ([1]; moisture adsorption, 75% RH) [%] | stability (HPLC) ([2]; 40° C./75% RH, 0 week) [%] | stability (HPLC) ([2]; 40° C./75% RH, 2 weeks) [%] | stability (HPLC) ([2]; 40° C./75% RH, 4 weeks) [%] | stability (HPLC) ([2]; 40° C./75% RH, 8 weeks) [%] | stability (HPLC) ([2]; 60° C./5% RH, 0 week) [%] | stability (HPLC) ([2]; 60° C./5% RH, 2 weeks) [%] | stability (HPLC) ([2]; 60° C./5% RH, 4 weeks) [%] | stability (HPLC) ([2]; 60° C./5% RH, 8 weeks) [%] | time to conversion into the crystal form I in the accelerating stability test ([3]; 40° C./75% RH) [weeks] | change of the crystal form by XRD analysis ([3]; 40° C./75% RH, at 8 week) | Bulk-density [4] [g/mL] | Tap-density [4] [g/mL] | moisture desorption on decreasing the humidity ([1]; after adsorption up to 95% RH) [%] | time to conversion into the crystal form I [5] | change of the crystal form by XRD analysis ([3]; 40±2° C., 75±5% RH or 60±2° C., 5±5% RH, up to 8 weeks) |
| --- | --- | --- | --- | --- | --- | --- | --- | --- | --- | --- | --- | --- | --- | --- | --- | --- | --- | --- |
| N[C@@H](CC(=O)N1CCc2c(nc(C(F)(F)F)nc2C(F)(F)F)C1)CN1CC(F)(F)CCC1=O.N[C@@H](CC(=O)N1CCc2c(nc(C(F)(F)F)nc2C(F)(F)F)C1)CN1CC(F)(F)CCC1=O.O.O=C(O)C(O)C(O)C(=O)O.O=C(O)C(O)C(O)C(=O)O [crystal form II] | converted into the crystal form I | ≥ 4.0 | 3.7 | 98.4 | 98.4 | 98.3 | 98.2 | 98.4 | 98.1 | 97.8 | 97.5 | ≤ 8 | converted into the crystal form I | 0.34 | 0.44 |  |  |  |
| N[C@@H](CC(=O)N1CCc2c(nc(C(F)(F)F)nc2C(F)(F)F)C1)CN1CC(F)(F)CCC1=O.O=C(O)C(O)C(O)C(=O)O [crystal form III] |  | ≥ 3.5 |  |  |  |  |  |  |  |  |  |  |  |  |  | ≤ 0.6 | within about one hour |  |
| N[C@@H](CC(=O)N1CCc2c(nc(C(F)(F)F)nc2C(F)(F)F)C1)CN1CC(F)(F)CCC1=O [crystal form I, 1-{(2S)-2-amino-4-[2,4-bis(trifluoromethyl)-5,8-dihydropyrido[3,4-d]pyrimidin-7(6H)-yl]-4-oxo-butyl}-5,5-difluoropiperidin-2-one tartrate] | not changed | ≤ 0.8 |  | 99.4 | 99.3 | 99.2 | 99.2 | 99.4 | 98.8 | 98.6 | 98.4 |  |  | 0.45 | 0.54 |  |  | did not show any change |
